Read-outs that look alike come from different tables or passages of the source.
Tests used:
[1] = test system: L. major promastigotes WT; assay: Alamar blue drug sensitivity assay, L. major WT; assay type: cell-based, Leishmania major; settings: Leishmania major, 72 h, WT promastigotes, 72 h + 48 h with dye; n ≥ 4; read-out: EC50
Lmex5FURes [2] = assay type: cell-based, Leishmania mexicana; settings: 0.5 μM radiolabel
Summary of the method: (§1)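 Mid-to-late log-phase parasites were washed and held at 10^8 cells ml^−1 in HEPES/bicarbonate buffer with glucose, pH 7.3, then incubated at ambient temperature with radiolabelled permeant, with or without unlabelled substrate or inhibitors. Uptake was stopped with ice-cold excess unlabelled permeant and oil centrifugation, then counted by scintillation; saturation, inhibition and time-course data fitted by regression, in triplicate.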

LmexNT1 [3] = assay type: cell-based, Leishmania mexicana; settings: inhibition of 0.25 μM [3H]-uridine uptake in the presence of 1 mM uracil
Summary of the method: as §1

LmexUU1 = assay type: cell-based, Leishmania mexicana; settings: inhibition of [3H]-uracil uptake, 4 min
Summary of the method: as §1

[4] = test system: L. mexicana promastigotes; assay: metabolomic analysis of treated L. mexicana promastigotes; assay type: cell-based, Leishmania mexicana; settings: 100 μM, 8 h
Method: (§2) Metabolomics analysis of the Leishmania promastigotes was undertaken in triplicate, exactly as described ([Ali et al., 2013a]). Briefly, cells were grown to log phase stage, resuspended at 2 × 10^6 cells/ml in 50 ml HOMEM/FBS and incubated 8 h with 100 μM of test compound (standard conditions) before transfer to a 50-ml centrifuge tube for instantaneous cooling (dry ice/ethanol bath, 4 °C) and centrifugation (2500 rpm, 10 min, 4 °C). The pellet was lysed with 200 μl of chloroform/methanol/water (1:3:1 v/v/v) containing mass spectrometry standards, and vigorous mixing (1 h, 4 °C); cell debris was removed by centrifugation and the metabolite extracts were stored in HPLC vials at −80 °C. Control samples were prepared in parallel and included untreated cells, unused growth medium, test compound solution and extraction solvent blanks. The analysis used a hydrophilic interaction liquid chromatography (HILIC-LC) fitted with a zwitterionic ZIC-pHILIC column (Merck Sequant), coupled to high resolution mass spectrometry (MS) using a Thermo Q-Exactive, and metabolomic data outputs were analyzed using the IDEOM application (http://mzmatch.sourceforge.net/ideom.php) with default parameters ([Creek et al., 2012]) exactly as described ([Ali et al., 2013a]). The lower limit of detection was set to 500 intensity units for all reported metabolites, in order to prevent spurious identification of low level signals.
(§3) The mechanism of action of the fluorinated pyrimidines was investigated using a metabolomics approach, where promastigotes of L. mexicana and L. major were incubated for 8 h with 100 μM of either 5-FU, 5F-2′dUrd or 5F-Urd prior to metabolite extraction and mass spectrometric analysis as described ([Ali et al., 2013a], [Alkhaldi et al., 2015]). These conditions were chosen to allow for significant metabolite accumulation while not affecting cell viability or growth rate, which could broadly affect metabolite levels.

Lmaj5FURes = assay: microbe, parasite or virus in culture; assay type: cell-based, Leishmania major
Method: (§4) Sensitivity assays of Leishmania strains to various drugs using the viability dye resazurin (Alamar Blue) (Sigma-Aldrich) were performed using a protocol adapted from [Räz et al. (1997)], as described ([Al-Salabi et al., 2003], [Gould et al., 2008]). Pentamidine and diminazene were used as non-nucleoside controls and were obtained from Sigma-Aldrich, as were many purines, pyrimidines, and analogs, with the exceptions of 2-thiouridine and 4-thiouridine (TriLink BioTechnologies, San Diego, CA); 5′-deoxyuridine, and 2′-3′-dideoxyuridine (Carbosynth, Compton, UK); 5-fluoro-2′-deoxyuridine (Fluka); and 2-thiouracil (ICN Biomedicals, Cambridge, UK). A preliminary promastigote culture was diluted to a density of 2 × 10^6 cells/ml, of which 100 μl was added to wells of 96-well plates pre-loaded with 100 μl of doubling dilutions of test compounds, resulting in a final density of 1 × 10^6 cells/ml; the dilutions were over 2 rows of the plate (23 concentrations), with the last well containing only medium and serving as the no-drug control. The plates were incubated at 25 °C for 72 h before adding the Alamar Blue dye (20 μl of 12.5 mg resazurin sodium salt (Sigma) in 100 ml phosphate buffered saline (PBS; pH 7.4)). Since Leishmania parasites metabolize the Alamar Blue dye slower than trypanosomes ([Gould et al., 2008]), the cells were incubated with the dye for a further period of 48 h before measuring the fluorescence, using a FLUOstar Optima fluorimeter (BMG Labtech) at wavelengths of 544 nm for excitation and 620 nm for emission. […] Each experiment was performed independently at least 4 times; statistical significance was determined using Student's unpaired t-test.

Lmaj5F2′dURes = assay: microbe, parasite or virus in culture; assay type: cell-based, Leishmania major
Method: as §4

Lmex5F2′dURes [5] = assay: microbe, parasite or virus in culture; assay type: cell-based, Leishmania mexicana
Lmex5FURes [6] = assay: microbe, parasite or virus in culture; assay type: cell-based, Leishmania mexicana
[7] = test system: L. mexicana promastigotes WT; assay: Alamar blue drug sensitivity assay, L. mexicana WT; assay type: cell-based, Leishmania mexicana; settings: Leishmania mexicana, 72 h, WT promastigotes, 72 h + 48 h with dye; n ≥ 4; read-out: EC50
L. major promastigotes [8] = assay: metabolomic analysis of treated L. major promastigotes; assay type: cell-based, Leishmania major; settings: 100 μM, 8 h
Method: as §2, §3

LmajNT1 [9] = assay: [3H]-uridine uptake by L. major promastigotes, low-affinity component; assay type: cell-based, Leishmania major; settings: inhibition of 0.25 μM [3H]-uridine uptake
Method: (§5) Using the standard uptake technique as described for T. brucei and Leishmania species ([Wallace et al., 2002], [Al-Salabi and De Koning, 2005], [Gudin et al., 2006]), the dose- or time-dependent uptake of radiolabeled permeants was investigated.
(§6) Briefly, cells in the mid-to-late logarithmic stage of growth were harvested by centrifugation for 10 min at 1500×g. The cells were washed twice with transport assay buffer (AB: 33 mM HEPES, 98 mM NaCl, 4.6 mM KCl, 0.55 mM CaCl2, 0.07 mM MgSO4, 5.8 mM NaH2PO4, 0.3 mM MgCl2, 23 mM NaHCO3, 14 mM glucose, pH 7.3), resuspended at a density of 10^8 cells ml^−1 in AB, and left for 20–30 min at room temperature to recover from centrifugation stress. One hundred microliters of cell suspension was incubated at ambient temperature for a predetermined time with 100 μl radiolabeled test compound, in the presence or absence of unlabeled substrate or other competitive inhibitors. The incubation was terminated by the addition of ice-cold stop solution (AB containing saturating levels, usually 10 mM, of unlabeled permeant) and centrifugation through oil for 1 min at 13,000 × g. […] Radioactivity was determined by liquid scintillation counting in a Beckman LS6000 TA scintillation counter. Saturation data, inhibition data, and time courses were plotted to equations for linear or non-linear regression (hyperbolic or sigmoid curves), as appropriate. All experiments were performed in triplicate and on at least three independent occasions.

LmexNT1 [10] = assay: [3H]-adenosine uptake by L. mexicana promastigotes; assay type: cell-based, Leishmania mexicana
[11] = test system: L. mexicana promastigotes; assay type: cell-based, Leishmania mexicana; settings: maximal inhibition; uracil up to 2.5 mM (Fig. 3B)
Summary of the method: as §1

Lmex5F2′dURes [12] = assay type: cell-based, Leishmania mexicana; settings: 0.5 μM [3H]-uridine; 0.1 μM [3H]-adenosine; 0.25 μM [3H]-uracil
Summary of the method: as §1

LmajNT2 = assay: [3H]-inosine transport by T. brucei B48 cells expressing LmajNT2; assay type: cell-based, Leishmania major; settings: 250 μM adenosine
Method: Plasmid construction and transfection was performed according to [Munday et al. (2013)]. The nucleoside transporter genes were isolated from L. mexicana and L. major. […] The primers used in this study (Table S2) were designed to flank the gene of interest, one complementary to the sequence upstream of the 5′ end and the other complementary to the sequence downstream of the 3′ end. All of the nucleoside transporters genes were PCR-amplified from genomic DNA of each strain using the high-fidelity proof-reading polymerase Phusion (New England Biolabs) and cloned into the pGEMTeasy (Promega) vector prior to Sanger sequencing (Source BioScience, Glasgow, UK). […] After confirming the identity of each gene, the nucleoside transporter genes (LmajNT1A, LmajNT1B, LmajNT2, LmexNT1A, LmexNT1B, and LmexNT2) were ligated into the expression vector pHD1336 ([Biebinger et al., 1997]) and then were linearized with NotI digestion. All genes were verified by Sanger sequencing, prior to transfection into T. b. brucei clone B48. B48 parasites (1 × 10^7 cells) were washed into Human T Cell buffer for transfection using the desired cassette with an Amaxa Nucleofector using program X-001. Cells were transferred into pre-warmed HMI-9 medium and allowed to recover for 8–16 h at 37 °C and 5% CO2. Following recovery, transfectants were grown and cloned in selective medium containing 5 μg ml^−1 blasticidin S using limiting dilution.
as §5
Briefly, cells in the mid-to-late logarithmic stage of growth were harvested by centrifugation for 10 min at 1500×g. […] Radioactivity was determined by liquid scintillation counting in a Beckman LS6000 TA scintillation counter. […]

LmajUUT1 = assay: [3H]-uridine uptake by L. major promastigotes, high-affinity uracil-sensitive component; assay type: cell-based, Leishmania major; settings: inhibition of 0.25 μM [3H]-uridine uptake
Method: as §5, §6

T. b. brucei strain B48 = assay: [3H]-inosine uptake in non-transfected T. brucei B48; assay type: cell-based, Trypanosoma brucei brucei; settings: 250 μM adenosine or 1 mM unlabeled inosine (Fig. 7B)
Method: as §5, §6

LdNT1.1 = test system: LdNT1.1; parameters: method as in Vasudevan et al., 1998; Landfear, 2001; settings: ref Vasudevan et al., 1998; Landfear, 2001; cited from earlier work
LmexNT1 [13] = assay type: cell-based, Leishmania mexicana; settings: inhibition of 1 μM [3H]-thymidine uptake, 20 s
LdNT1.2 = test system: LdNT1.2; parameters: method as in Vasudevan et al., 1998; Landfear, 2001; settings: ref Vasudevan et al., 1998; Landfear, 2001; cited from earlier work
L. major promastigotes [14] = assay: total [3H]-uridine uptake by L. major promastigotes; assay type: cell-based, Leishmania major; settings: complete inhibition of [3H]-uridine transport (both components)
Method: as §5, §6

LmajNT1 [15] = assay: [3H]-thymidine uptake by L. major promastigotes; assay type: cell-based, Leishmania major; settings: inhibition of 0.25 μM [3H]-thymidine uptake (total LmajNT1.1 + LmajNT1.2), 5 min
[16] = n = 3, SEM, untreated: not detected (<500)

## O=c1[nH]cc(F)c(=O)[nH]1 [5-FU, 5-Fluorouracil]
[1]
  EC50: 8.5 ± 0.6 µM
Lmex5FURes [2]
  uptake of radiolabel, lower than in WT control cells: 94.5%
LmexNT1 [3]
  Ki: > 5000 µM
LmexUU1
  Ki: 56.3 ± 6.4 µM
[4]; [16]
  dCMP peak intensity: 5636 ± 3288 arbitrary units
[4]; untreated: 304 ± 155
  dUrd peak intensity: 4166 ± 1560 arbitrary units
[4]; untreated: 1458
  dADP peak intensity: 8948 ± 461^∗∗ arbitrary units
[4]; untreated: 2585 ± 811
  dAdo peak intensity: 6476 ± 2403 arbitrary units
[4]; untreated: 10660 ± 2897
  dAMP peak intensity: 20366 ± 5358 arbitrary units
[4]; untreated: not detected
  dCDP peak intensity: 4803 ± 433^∗∗ arbitrary units
  dCTP peak intensity: 2913 ± 1346 arbitrary units
Lmaj5FURes; Leishmania major
  EC50: 150 ± 5 µM
Lmaj5FURes; Lmaj5FURes vs L. major WT
  RF (Resistance Factor = IC50 (resistant clone)/IC50 (WT)): 17
Lmaj5F2′dURes; Leishmania major
  EC50: 12 ± 1 µM
Lmaj5F2′dURes; Lmaj5F2′dURes vs L. major WT
  RF (Resistance Factor = IC50 (resistant clone)/IC50 (WT)): 1.3
Lmex5F2′dURes [5]; Leishmania mexicana
  EC50: 1770 ± 301 µM
Lmex5F2′dURes [5]; Lmex5F2′dURes vs L. mexicana WT
  RF (Resistance Factor = IC50 (resistant clone)/IC50 (WT)): 190
Lmex5FURes [6]; Leishmania mexicana
  EC50: 1370 ± 123 µM
Lmex5FURes [6]; Lmex5FURes vs L. mexicana WT
  RF (Resistance Factor = IC50 (resistant clone)/IC50 (WT)): 147
[7]
  EC50: 9.3 ± 0.6 µM
L. major promastigotes [8]; [16]
  dCMP peak intensity: 5130 arbitrary units
L. major promastigotes [8]; untreated: 712 ± 105
  dUrd peak intensity: 5177 ± 1445 arbitrary units
L. major promastigotes [8]; untreated: 995 ± 109
  dCTP peak intensity: 4541 ± 565 arbitrary units
L. major promastigotes [8]; untreated: 2992 ± 173
  dAdo peak intensity: 6996 ± 2423 arbitrary units
L. major promastigotes [8]; untreated: 6192 ± 910
  dAMP peak intensity: 19379 ± 3774 arbitrary units
L. major promastigotes [8]; untreated: not detected
  dADP peak intensity: not detected
  dCDP peak intensity: 6197 ± 1588 arbitrary units

## Nc1ncnc2c1ncn2[C@@H]1O[C@H](CO)[C@@H](O)[C@H]1O [adenosine]
LmajNT1 [9]
  Ki: 1.93 ± 0.49 µM
LmexNT1 [10]; 0.1 μM [3H]-adenosine, linear over at least 30 s
  rate of transport: 0.21 ± 0.01 pmol(10^7 cells)^−1s^−1
LmexNT1 [10]; [3H]-adenosine
  Km: 0.81 ± 0.16 µM
  Vmax: 1.11 ± 0.19 pmol(10^7 cells)^−1s^−1
[11]
  inhibition of 0.25 μM [3H]-uridine transport: ~100%
Lmex5F2′dURes [12]
  uptake of radiolabel, reduced compared to WT control cells: 89%
LmexNT1 [3]
  Ki: 0.39 ± 0.09 µM
LmajNT2
  inhibition of 50 nM [3H]-inosine transport: 57%
LmajUUT1
  Ki: 1.93 ± 0.49 µM
T. b. brucei strain B48
  inhibition of 50 nM [3H]-inosine transport: fully inhibited
LdNT1.1
  Km: ~0.2 µM
LmexNT1 [13]
  Ki: 0.25 ± 0.04 µM
LdNT1.2
  Km: ~5 µM
L. major promastigotes [14]
  Ki: 1.93 ± 0.49 µM
LmajNT1 [15]
  Ki: 1.77 ± 0.21 µM

— publication PMC5407577, “Functional and genetic evidence that nucleoside transport is highly conserved in Leishmania species: Implications for pyrimidine-based chemotherapy” (International Journal for Parasitology: Drugs and Drug …, 2017)
